For three compounds, Ki and Kd results are on record in ChEMBL document CHEMBL1914418, “Biochemical and pharmacological profiling of the pro-survival protein Bcl-xL” (Bioorg Med Chem Lett, 2011).

Experiment [1] concerns the target Bcl-2-like protein 1 (Homo sapiens, UniProt Q07817, E96G). Put plainly: Displacement of BODIPY-Bak conjugated peptide from GST-tagged human Bcl-2-like protein 1 E96G mutant expressed in Escherichia coli BL21 cells at 40 uM after 3 hrs by fluorescence polarization competition assay.
Experiment [2] has as its target Bcl-2-like protein 1 (Homo sapiens, UniProt Q07817). Put plainly: Displacement of BODIPY-Bak conjugated peptide from GST-tagged human Wild type Bcl-2-like protein 1 expressed in Escherichia coli BL21 cells at 40 uM after 3 hrs by fluorescence polarization competition assay. Background: Fluorescence polarisation rises when a labelled molecule tumbles more slowly, as on binding a larger partner.

Experiment [3] is described as follows: Displacement of BODIPY-Bak conjugated peptide from GST-tagged human Bcl-2-like protein 1 A142G, delta136T mutant expressed in Escherichia coli BL21 cells at 40 uM after 3 hrs by fluorescence polarization competition assay.
The target of experiment [4] is Bcl-2-like protein 1 (Homo sapiens, UniProt Q07817, G196A). Kind of experiment: Displacement of BODIPY-Bak conjugated peptide from GST-tagged human Bcl-2-like protein 1 G196A mutant expressed in Escherichia coli BL21 cells at 40 uM after 3 hrs by fluorescence polarization competition assay.
In experiment [5] the target is Bcl-2-like protein 1 (Homo sapiens, UniProt Q07817, Y195F). Kind of experiment: Displacement of BODIPY-Bak conjugated peptide from GST-tagged human Bcl-2-like protein 1 Y195F mutant expressed in Escherichia coli BL21 cells at 40 uM after 3 hrs by fluorescence polarization competition assay.
For experiment [6], the target named is Bcl-2-like protein 1 (Homo sapiens, UniProt Q07817, L130A). Kind of experiment: Displacement of BODIPY-Bak conjugated peptide from GST-tagged human Bcl-2-like protein 1 L130A mutant expressed in Escherichia coli BL21 cells at 40 uM after 3 hrs by fluorescence polarization competition assay.
Experiment [7] is described as follows: Displacement of BODIPY-Bak conjugated peptide from GST-tagged human Bcl-2-like protein 1 delta136T mutant expressed in Escherichia coli BL21 cells at 40 uM after 3 hrs by fluorescence polarization competition assay.
The target in experiment [8] is Bcl-2-like protein 1 (Homo sapiens, UniProt Q07817, A93V). Kind of experiment: Displacement of BODIPY-Bak conjugated peptide from GST-tagged human Bcl-2-like protein 1 A93V mutant expressed in Escherichia coli BL21 cells at 40 uM after 3 hrs by fluorescence polarization competition assay.
The target of experiment [9] is Bcl-2-like protein 1 (Homo sapiens, UniProt Q07817, R100E). Put plainly: Displacement of BODIPY-Bak conjugated peptide from GST-tagged human Bcl-2-like protein 1 R100E mutant expressed in Escherichia coli BL21 cells at 40 uM after 3 hrs by fluorescence polarization competition assay.
Experiment [10] deals with Bcl-2-like protein 1 (Homo sapiens, UniProt Q07817, L130V). Kind of experiment: Displacement of BODIPY-Bak conjugated peptide from GST-tagged human Bcl-2-like protein 1 L130V mutant expressed in Escherichia coli BL21 cells at 40 uM after 3 hrs by fluorescence polarization competition assay.
The target in experiment [11] is Bcl-2-like protein 1 (Homo sapiens, UniProt Q07817, Y101H). Put plainly: Displacement of BODIPY-Bak conjugated peptide from GST-tagged human Bcl-2-like protein 1 Y101H mutant expressed in Escherichia coli BL21 cells at 40 uM after 3 hrs by fluorescence polarization competition assay.
Experiment [12] deals with Bcl-2-like protein 1 (Homo sapiens, UniProt Q07817, V141A). Kind of experiment: Displacement of BODIPY-Bak conjugated peptide from GST-tagged human Bcl-2-like protein 1 V141A mutant expressed in Escherichia coli BL21 cells at 40 uM after 3 hrs by fluorescence polarization competition assay.
The target of experiment [13] is Bcl-2-like protein 1 (Homo sapiens, UniProt Q07817, A142G). Kind of experiment: Displacement of BODIPY-Bak conjugated peptide from GST-tagged human Bcl-2-like protein 1 A142G mutant expressed in Escherichia coli BL21 cells at 40 uM after 3 hrs by fluorescence polarization competition assay.
For experiment [14], the target named is Bcl-2-like protein 1 (Homo sapiens, UniProt Q07817, F97V). Kind of experiment: Displacement of BODIPY-Bak conjugated peptide from GST-tagged human Bcl-2-like protein 1 F97V mutant expressed in Escherichia coli BL21 cells at 40 uM after 3 hrs by fluorescence polarization competition assay.
Experiment [15] has as its target Bcl-2-like protein 1 (Homo sapiens, UniProt Q07817, A142T). Kind of experiment: Displacement of BODIPY-Bak conjugated peptide from GST-tagged human Bcl-2-like protein 1 A142T mutant expressed in Escherichia coli BL21 cells at 40 uM after 3 hrs by fluorescence polarization competition assay.
Experiment [16] deals with Bcl-2-like protein 1 (Homo sapiens, UniProt Q07817, L130G). Put plainly: Displacement of BODIPY-Bak conjugated peptide from GST-tagged human Bcl-2-like protein 1 L130G mutant expressed in Escherichia coli BL21 cells at 40 uM after 3 hrs by fluorescence polarization competition assay.
For experiment [17], the target named is Bcl-2-like protein 1 (Homo sapiens, UniProt Q07817, E129H). Put plainly: Displacement of BODIPY-Bak conjugated peptide from GST-tagged human Bcl-2-like protein 1 E129H mutant expressed in Escherichia coli BL21 cells at 40 uM after 3 hrs by fluorescence polarization competition assay.
Experiment [18] has as its target Induced myeloid leukemia cell differentiation protein Mcl-1 homolog (Mus musculus, UniProt P97287). Kind of experiment: Binding affinity for GST-tagged mouse MCL1 expressed in Escherichia coli BL21 cells.
A short description of experiment [19]: Displacement of BODIPY-Bak conjugated peptide from GST-tagged human Bcl-2-like protein 1 A142Gdelta136T mutant expressed in Escherichia coli BL21 cells at 10 uM after 3 hrs by fluorescence polarization competition assay.
Experiment [20] in a line: Displacement of BODIPY-Bak conjugated peptide from GST-tagged human Bcl-2-like protein 1 delta136T mutant expressed in Escherichia coli BL21 cells at 10 uM after 3 hrs by fluorescence polarization competition assay.
Another experiment has as its target T1, Bcl-2-related protein A1 (Homo sapiens, UniProt Q16548).
T1 sequence (Q16548 whole entry): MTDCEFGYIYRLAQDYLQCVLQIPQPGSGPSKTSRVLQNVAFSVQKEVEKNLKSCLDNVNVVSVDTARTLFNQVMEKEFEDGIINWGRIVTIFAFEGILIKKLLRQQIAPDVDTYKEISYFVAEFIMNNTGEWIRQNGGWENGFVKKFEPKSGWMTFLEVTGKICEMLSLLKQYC
Put plainly: Binding affinity for GST-tagged human BCL2A1 expressed in Escherichia coli BL21 cells.

Bcl-2-like protein 1 (Homo sapiens, UniProt Q07817, Y101H), sequence (Q07817 whole entry Y101H): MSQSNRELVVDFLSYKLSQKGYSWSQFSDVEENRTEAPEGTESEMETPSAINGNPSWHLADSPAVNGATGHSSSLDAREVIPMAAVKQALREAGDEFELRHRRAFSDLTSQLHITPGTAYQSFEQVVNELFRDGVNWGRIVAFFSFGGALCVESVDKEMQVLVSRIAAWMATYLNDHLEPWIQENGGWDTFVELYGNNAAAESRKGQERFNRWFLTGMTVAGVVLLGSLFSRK
Bcl-2-like protein 1 (Homo sapiens, UniProt Q07817, R100E), sequence (Q07817 whole entry R100E): as the sequence (Q07817 whole entry Y101H) above, with R100E, H101Y counted along it
Bcl-2-like protein 1 (Homo sapiens, UniProt Q07817, A93V), sequence (Q07817 whole entry A93V): as the sequence (Q07817 whole entry Y101H) above, with A93V, H101Y counted along it
Bcl-2-like protein 1 (Homo sapiens, UniProt Q07817, Y195F), sequence (Q07817 whole entry Y195F): as the sequence (Q07817 whole entry Y101H) above, with H101Y, Y195F counted along it
Bcl-2-like protein 1 (Homo sapiens, UniProt Q07817, L130A), sequence (Q07817 whole entry L130A): as the sequence (Q07817 whole entry Y101H) above, with H101Y, L130A counted along it
Bcl-2-like protein 1 (Homo sapiens, UniProt Q07817, A142G), sequence (Q07817 whole entry A142G): as the sequence (Q07817 whole entry Y101H) above, with H101Y, A142G counted along it
Bcl-2-like protein 1 (Homo sapiens, UniProt Q07817, E129H), sequence (Q07817 whole entry E129H): as the sequence (Q07817 whole entry Y101H) above, with H101Y, E129H counted along it
Bcl-2-like protein 1 (Homo sapiens, UniProt Q07817), sequence (Q07817 whole entry): as the sequence (Q07817 whole entry Y101H) above, with H101Y counted along it
Bcl-2-like protein 1 (Homo sapiens, UniProt Q07817, V141A), sequence (Q07817 whole entry V141A): as the sequence (Q07817 whole entry Y101H) above, with H101Y, V141A counted along it
Bcl-2-like protein 1 (Homo sapiens, UniProt Q07817, F97V), sequence (Q07817 whole entry F97V): as the sequence (Q07817 whole entry Y101H) above, with F97V, H101Y counted along it
Bcl-2-like protein 1 (Homo sapiens, UniProt Q07817, L130G), sequence (Q07817 whole entry L130G): as the sequence (Q07817 whole entry Y101H) above, with H101Y, L130G counted along it
Bcl-2-like protein 1 (Homo sapiens, UniProt Q07817, A142T), sequence (Q07817 whole entry A142T): as the sequence (Q07817 whole entry Y101H) above, with H101Y, A142T counted along it
Bcl-2-like protein 1 (Homo sapiens, UniProt Q07817, E96G), sequence (Q07817 whole entry E96G): as the sequence (Q07817 whole entry Y101H) above, with E96G, H101Y counted along it
Bcl-2-like protein 1 (Homo sapiens, UniProt Q07817, L130V), sequence (Q07817 whole entry L130V): as the sequence (Q07817 whole entry Y101H) above, with H101Y, L130V counted along it
Bcl-2-like protein 1 (Homo sapiens, UniProt Q07817, G196A), sequence (Q07817 whole entry G196A): as the sequence (Q07817 whole entry Y101H) above, with H101Y, G196A counted along it
Induced myeloid leukemia cell differentiation protein Mcl-1 homolog, sequence (P97287 whole entry): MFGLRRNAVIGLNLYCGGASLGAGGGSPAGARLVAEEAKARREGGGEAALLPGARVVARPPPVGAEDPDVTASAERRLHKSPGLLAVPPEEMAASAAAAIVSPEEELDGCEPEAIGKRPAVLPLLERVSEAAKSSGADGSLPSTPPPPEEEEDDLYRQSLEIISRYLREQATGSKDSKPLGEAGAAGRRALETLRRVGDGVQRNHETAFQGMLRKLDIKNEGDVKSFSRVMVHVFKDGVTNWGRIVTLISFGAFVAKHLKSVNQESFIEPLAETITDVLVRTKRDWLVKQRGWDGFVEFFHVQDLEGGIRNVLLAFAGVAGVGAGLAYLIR

Take H-PAELEVECATQLRRFGDKLNFRQKLL-OH: the Ki (on Bcl-2-like protein 1 [1]; at Bcl-2-like protein 1 [2]; in [3]; on Bcl-2-like protein 1 [4]; on Bcl-2-like protein 1 [5]; on Bcl-2-like protein 1 [6]) was more than 10000 nM throughout. The Ki (in [7]; at Bcl-2-like protein 1 [8]; at Bcl-2-like protein 1 [9]; on Bcl-2-like protein 1 [10]; on Bcl-2-like protein 1 [11]; at Bcl-2-like protein 1 [12]) was more than 10000 nM in each case. Moreover, the Ki at Bcl-2-like protein 1 [13], at Bcl-2-like protein 1 [14], at Bcl-2-like protein 1 [15], at Bcl-2-like protein 1 [16] and at Bcl-2-like protein 1 [17] was more than 10000 nM throughout.
On to `CN(C)CC[C@H](CSc1ccccc1)Nc1ccc(S(=O)(=O)NC(=O)c2ccc(N3CCN(Cc4ccccc4-c4ccc(Cl)cc4)CC3)cc2)cc1[N+](=O)[O-]` [ABT 737], for which the Kd (in experiment [18]; on Bcl-2-related protein A1) was more than 1000 nM in each case. Moreover, the Ki – broadly, a dissociation constant, usually derived from enzyme kinetics or from competition with a known ligand – in experiment [19] turned out to be 10 nM; in experiment [20], 60 nM.
As to `CC[C@H](C)[C@H](NC(=O)[C@H](CCC(=O)O)NC(=O)[C@H](CCCNC(=N)N)NC(=O)[C@H](C)NC(=O)[C@H](Cc1c[nH]c2ccccc12)NC(=O)[C@H](CCC(N)=O)NC(=O)[C@H](CCC(=O)O)NC(=O)[C@@H](N)CCC(=O)O)C(=O)NCC(=O)N[C@@H](C)C(=O)N[C@@H](CCC(N)=O)C(=O)N[C@@H](CC(C)C)C(=O)N[C@@H](CCCNC(=N)N)C(=O)N[C@@H](CCCNC(=N)N)C(=O)N[C@@H](CCSC)C(=O)N[C@@H](C)C(=O)N[C@@H](CC(=O)O)C(=O)N[C@@H](CC(=O)O)C(=O)N[C@@H](CC(C)C)C(=O)N[C@@H](CC(N)=O)C(=O)N[C@@H](C)C(=O)N[C@@H](CCC(N)=O)C(=O)N[C@@H](Cc1ccc(O)cc1)C(=O)N[C@@H](CCC(=O)O)C(=O)N[C@@H](CCCNC(=N)N)C(=O)N[C@@H](CCCNC(=N)N)C(=O)O`, the Ki on Bcl-2-like protein 1 [1] is more than 10000 nM; at Bcl-2-like protein 1 [2], 1.4 nM; in [3], 75 nM; on Bcl-2-like protein 1 [4], 8.9 nM; on Bcl-2-like protein 1 [5], 8.7 nM; at Bcl-2-like protein 1 [6] it was 120 nM. Moreover, the Ki in experiment [7] was 26 nM; at Bcl-2-like protein 1 [8], more than 10000 nM; on Bcl-2-like protein 1 [9] it was 180 nM; at Bcl-2-like protein 1 [10], 29 nM; on Bcl-2-like protein 1 [11], 380 nM; on Bcl-2-like protein 1 [12] it was 100 nM. The Ki at Bcl-2-like protein 1 [13] was determined as 9.7 nM; on Bcl-2-like protein 1 [14], 89 nM; at Bcl-2-like protein 1 [15] it was 130 nM; on Bcl-2-like protein 1 [16] it was 530 nM; at Bcl-2-like protein 1 [17] it was 170 nM.
